# Laboratory results taken from patent publication US12478610B2, “Compositions of tryptophol derivatives and 4-ethyl-phenol derivatives, and methods of using same” (B. G. Negev Technologies and Applications Ltd., at …, priority 2020, dated 2025).
# Experiments:
# human normal whole blood [1] = experiment: Thromboelastography (TEG) of human normal whole blood clotting; assay type: cell-based; details: 200 μM (mixture: 200 μM each); healthy blood; TBS control
# human normal whole blood [2] = experiment: as above; assay type: cell-based
# Procedure: Clotting of whole blood (from healthy volunteers, and diabetics patients) was monitored by thromboelastography (TEG) on a TEGs 5000 Hemostasis Analyzer (Haemoscope Inc., Niles, IL) equipped with two independent channels. Thermoelastograms were recorded at 37° C. and analyzed using the TEGs Analytical Software) version 4.2.3 provided with the instrument). Reported clotting parameters are the time until the onset in the measured strength considered as clot reaction time, R; the time until achieving 20% of the maximum clot strength (clotting time), k; the rate of clot strength increase measuring the kinetics of clot formation, the α angle; and finally, the maximum clot strength, MA.
# Aqueous solutions of molecules mixture in a ratio of 1:1 in deionized water were prepared in the concentration range of 400-1,800 μM. TEG cups were first filled with […] of 250 mM CaCl2, supplemented with […] of human blood sample, followed by the addition of the appropriate volume of the molecule's mixture dissolved in water to obtain the above rang of concentration or TBS as control before initiating the test. The test completed when clotting parameters obtained final values or within 45 min. Each sample was run in duplicates, n≥5 individual blood samples. TEG values of control fell within the acceptable range reported for human whole blood barring an expected decrease in clot strength (MA), as tested blood was deficient in platelets (Scarpelini et al. Biol. Res., 2009).
# The inventors have studied the effect of tryptophol acetate and tyrosol acetate on human normal whole blood coagulation. The blood clotting was monitored by thromboelastography (TEG). TEG is one of the most common whole-blood viscoelastic coagulation tests used in clinical laboratories and at the point of care. TEG provides a direct information of the blood clotting kinetic and strength, with no ‘added reagents. Clotting of human normal whole blood was monitored by TEG on a TEG 5000 Hemostasis Analyzer (Haemoscope Inc., Niles, IL) equipped with two independent channels. Thermoelastograms were recorded at 37° C. and analyzed using the TEG Analytical Software (version 4.2.3 provided using the instrument). Reported clotting parameters are the time till onset in the measured strength considered as the clot reaction time, R; the time till achieving 20% of the maximum clot strength (clotting time), k; the rate of the clot strength increase measuring the kinetics of clot formation, the α angle; and lastly, the maximum clot strength, MA (see table 1). […]
# [3] = 400 μM (mixture: 400 μM each), healthy blood, TBS control
structure (smiles),measurement,setting,value
"CC(=O)OCCc1ccc(O)cc1 [compound 180, Tyrosol acetate]",K,human normal whole blood [1],1.8 min
same,MA (mm),human normal whole blood [1],59.0 mm
same,R,human normal whole blood [1],6.4 min
same,α (degree),human normal whole blood [1],59.6 degree
"CC(=O)OCCc1c[nH]c2ccccc12 [compound 203, Tryptophol acetate]",K,human normal whole blood [1],2.3 ± 0.1 min
same,MA (mm),human normal whole blood [1],60.5 ± 1.5 mm
same,R,human normal whole blood [1],6.2 ± 0.2 min
same,α (degree),human normal whole blood [1],56.8 ± 2.7 degree
"NCCc1c[nH]c2ccc(O)cc12 [Serotonin, serotonin]",K,human normal whole blood [1],2.4 ± 0.2 min
same,MA (mm),human normal whole blood [1],60 ± 0.4 mm
same,R,human normal whole blood [1],6.8 ± 0.9 min
same,α (degree),human normal whole blood [1],58.2 ± 0.3 degree
same,K,human normal whole blood [2]; [3],1.5 ± 0.2 min
same,MA (mm),human normal whole blood [2]; [3],61.3 ± 1.7 mm
same,R (min),human normal whole blood [2]; [3],5.2 + 0.4 min
same,α (degree),human normal whole blood [2]; [3],62.4 ± 0.9 degree
same,effect on the TEG parameters as seen with the mixture at 200 μM each,"human normal whole blood [2]; single substance at a similar concentration, whole blood",did not show a similar effect
